Data on two substances can be found in US20060167229A1, “Biologically active peptide conjugates” (priority 2002, published 2006).

Marks after values point to notes of the source that are not given here. Ends that are not written are not given here.

A short description of experiment [1]: Body weight of rats on high nutrition diet (over-feeding obesity model). Format: in vivo, Sprague-Dawley (SD) rats. As for the experimental part: Healthy rats were fed with high nutrition diet for 5 weeks, with or without simultaneous peptide treatment (intramuscular 300 μg/kg/day). Rats on an ordinary diet with saline injection were used as negative control. After 5 weeks of treatment, injection was stopped and the same diet was maintained for another three weeks. Body weight data was collected at once per week interval. Behaviour of the rats was also observed. […] It is concluded that CMS015 at suitable dosage level can reversibly control obesity development induced by over-feeding.
Sprague-Dawley (SD) rats, weighing 145±10 g, were supplied by the Center of Experimental Animal of Guangzhou University of Traditional Chinese Medicine, PR China (certificate No.: 2000A019). Peptides were custom synthesized (of L-amino acids origin) by American Peptide Company, Inc., USA, and were diluted to 10 μg/ml in normal saline. The high and normal nutrition diets were prepared in compliance with the guideline for pre-clinical research of anti-obesity drug, issued by SDA (State Drug Administration), PR China^[1].
Healthy rats were randomized into the experiment, positive control, and negative control groups. 10 rats per group, half male and half female. The experiment group of rats was fed with high nutrition diet for 5 weeks with simultaneous intramuscular injection of 300 μg/kg/day peptide, once per day. Positive control group received the same high nutrition diet but placebo saline injection, while negative control group, used to proof successful establishment of obesity model, received normal nutrition diet and placebo saline injection. After 5 weeks treatment, injection was stopped and the same diet was maintained for another 3 weeks. The rats were weighed at once per week interval. Behaviour of the rats was also observed.
The data were presented as mean±standard deviation. Paired t test or single-factor ANOVA was used for inter and intra group comparison. Statistical significance cut-off was at P≦0.05.

Experiment [2] has as its system Duck Hepatitis B Virus (DHBV). The experiment can be described thus: Chongqing duck hepatitis B model, serum DHBV DNA by dot-blot hybridization. The class given is in vivo, Chongqing ducks. As for the experimental part:
Chongqing duck hepatitis B model was set up and treated with peptides by intraperitoneal injection (50 μg/kg/day, once per day) for 4 weeks. The serum level of DHBV DNA was analyzed by serum dot-blot hybridization. Lamivudine and normal saline treatment was used as positive and negative control respectively. […] It is concluded that CMS001 at suitable dosage level can be used as a part, or on its own, for viral hepatitis infection management. One-day old Chongqing ducks were inoculated with 0.1 ml stock serum positive of Duck Hepatitis B Virus (DHBV) DNA (5×10^7 copy/ml) by intraperitoneal injection. One week later, blood samples were collected from the external jugular vein and infection was confirmed by dot-blot hybridization with DHBV DNA probe labeled with digoxin^[2]. The ducks were breed to 2 weeks old for entrance into the study. […] Treatment lasted for 4 weeks and observation continued for another one week after termination of treatment. 1 ml blood samples were drawn from the external jugular vein of the ducks on days 0, 7, 14, 21, 28, and 35 when treatment started. Sera of the blood samples were isolated immediately^[3] and stored at −20° C. until analysis. 4. Serum DHBV DNA Level Determinations DHBV DNA probe was fluorescent labeled according to the labeling kit protocol from the kit manufacturer (Amersham Pharmacia Biotech Co.). 40 μl duck sera were dot-blotted (1 duplicated dot per sample) onto nitro-cellulose membrane and hybridized with fluorescent-labeled DHBV DNA probe for quantitation^[2]. After completion of hybridization, the blots were developed in CDP-Star fluorimetry reagent RPN3690 and scanned with Vuego Scan (Brisa-620st) scanner. ImageMaster TotalLab v1.11.Ink software was used for quantitative analysis of the blots. Statistical analysis was carried out according to the pair t-test with SPSS software.

On to “Pro Ser Ile Vat Gly Arg Pro Arg His Gln Gly Val Met (PSIVGRPRHQGVM; listed as Sus scrofa) [CMS015]”, for which the “difference of the treatment and control groups upon termination of peptide treatment” value in experiment [1] (300 μg/kg/day i.m. for 5 weeks, then 3 weeks same diet without injection) is “gradually reduced and became statistically insignificant after three weeks”. For the same substance, the body weight stood at 129.2 ± 3.3 g in experiment [1] (Female n = 5, Pre-treatment, positive control 133.6 ± 4.6); 157.8 ± 8.3 g in experiment [1] (Female, Week 1, 300 μg/kg/day i.m., high nutrition diet, positive control 164.4 ± 8.7); 176.0 ± 11.2 g in experiment [1] (Female, Week 2, 300 μg/kg/day i.m., high nutrition diet, positive control 188.0 ± 6.4); 196.0 ± 10.5 g in experiment [1] (Female, Week 3, 300 μg/kg/day i.m., high nutrition diet, positive control 208.8 ± 8.2); 212.0 ± 13.5 g in experiment [1] (Female, Week 4, 300 μg/kg/day i.m., high nutrition diet, positive control 227.2 ± 8.2); 221.4 ± 13.2 g in experiment [1] (Female, Week 5, 300 μg/kg/day i.m., high nutrition diet, positive control 236.6 ± 10.9). Also, the body weight stood at 235.6 ± 16.3 g in experiment [1] (Female, Week 6 (injection stopped after week 5), positive control 249.4 ± 16.3); 242.2 ± 18.8 g in experiment [1] (Female, Week 7 (injection stopped after week 5), positive control 261.2 ± 13.4); 252.8 ± 22.5 g in experiment [1] (Female, Week 8 (injection stopped after week 5), positive control 255.6 ± 11.5); 145.6 ± 8.5 g in experiment [1] (Male n = 5, Pre-treatment, positive control 145.6 ± 13.6); 183.8 ± 10.6 g in experiment [1] (Male, Week 1, 300 μg/kg/day i.m., high nutrition diet, positive control 194.4 ± 14.5); 220.6 ± 12.2 g in experiment [1] (Male, Week 2, 300 μg/kg/day i.m., high nutrition diet, positive control 239.6 ± 13.4). The body weight is 239.0 ± 16.0 g in experiment [1] (Male, Week 3, 300 μg/kg/day i.m., high nutrition diet, positive control 265.0 ± 11.8); 258.2 ± 18.1 g in experiment [1] (Male, Week 4, 300 μg/kg/day i.m., high nutrition diet, positive control 287.4 ± 17.7); 268.8 ± 17.7 g in experiment [1] (Male, Week 5, 300 μg/kg/day i.m., high nutrition diet, positive control 299.4 ± 21.2); 299.4 ± 21.2 g in experiment [1] (Male, Week 6 (injection stopped after week 5), positive control 333.4 ± 27.1); 310.4 ± 25.9 g in experiment [1] (Male, Week 7 (injection stopped after week 5), positive control 349.2 ± 28.9); 337.4 ± 30.6 g in experiment [1] (Male, Week 8 (injection stopped after week 5), positive control 374.4 ± 37.2).

On to PTTKTYFPHF [CMS001], for which the “serum DHBV DNA titre upon termination of treatment” value in experiment [2] (50 μg/kg/day i.p. for 4 weeks, then one week observation) was “rebounded to a value with no statistical difference from that before treatment”. Besides, the “DHBV DNA level (Mean ± Standard Deviation)” value is recorded as 21 ± 18 10^3 units in experiment [2] (Day 0 (before treatment), CMS001 50 μg/kg/day i.p., lamivudine 50 mg/kg/day oral, saline 26 ± 12); 11 ± 13 10^3 units in experiment [2] (Day 7, CMS001 50 μg/kg/day i.p., lamivudine 50 mg/kg/day oral, saline 45 ± 31); 20 ± 18 10^3 units in experiment [2] (Day 14, CMS001 50 μg/kg/day i.p., lamivudine 50 mg/kg/day oral, saline 49 ± 23); 14 ± 14 10^3 units in experiment [2] (Day 21, CMS001 50 μg/kg/day i.p., lamivudine 50 mg/kg/day oral, saline 102 ± 66); 5 ± 3* 10^3 units in experiment [2] (Day 28 (end of 4 weeks treatment), CMS001 50 μg/kg/day i.p., lamivudine 50 mg/kg/day oral, saline 60 ± 38); 18 ± 16 10^3 units in experiment [2] (Day 35 (one week after termination of treatment), saline 50 ± 43).
